The record followed here is PMC9504029, “Identification and Characterization of Novel Small-Molecule SMOX Inhibitors” (Medical Sciences, 2022).

Format in all cases: biochemical
In test [1] the target is T1, SMOX (Homo sapiens, UniProt Q9NWM0).
T1 construct: using 0.3 µg/mL of purified SMOX enzyme and 2 mM of spermine substrate
Nature of the test: SMOX enzyme activity, HRP-luminol chemiluminescence assay. The settings on record: 2 mM spermine. The protocol: As the catabolism of spermine by SMOX results in the stoichiometric production of H2O2, enzyme activity was quantified by chemiluminescence generated by the horseradish peroxidase-catalyzed oxidation of luminol in 96-well plates (Costar #3912; white, flat bottom), as previously described. All assays were performed in 0.083 M glycine buffer at a pH of 8 using 0.3 µg/mL of purified SMOX enzyme and 2 mM of spermine substrate. Phosphate buffer was not used to prevent the formation of polyamine–phosphate complexes. Enzyme reactions were initiated by the addition of SMOX and HRP to all other assay components; inhibitors were not pre-incubated with enzyme. Triplicate determinations were obtained for each measurement by recording the luminescence (AUC) over 60 s. Hit compounds were then confirmed by monitoring the assay over 600 s. Each triplicate assay point contained a 4th control well to monitor and normalize the data with regards to luminescent decay over time. The compounds were initially screened for activity at a concentration of 20 µM. […] The known SMOX inhibitor, MDL-72527, was used as a control. The hit compounds were then characterized by IC50 and kinetic analyses. Percent inhibition values are reported as triplicate mean % SMOX inhibition ± SD compared to the vehicle control. IC50 values were calculated in GraphPad Prism 9.3 software (Graph-Pad, San Diego, California) using a non-linear regression analysis ([Inhibitor] vs. normalized response—variable slope). Data for all enzyme assays were generated using a SpectraMax M5 plate reader (Molecular Devices) equipped with SOFTmax PRO 7.0.3 software.

The target of test [2] is T1, SMOX. Nature of the test: Mechanism of inhibition and enzyme kinetics (Lineweaver–Burk, global fit). The protocol:
The mechanism of enzyme inhibition was determined using the HRP-luminol coupled enzyme assay described above. Reaction velocity (max RLU/sec over 10 min) was measured across multiple substrate and inhibitor concentrations, and individual triplicate values were plotted using a Lineweaver–Burk transformation (double-reciprocal) in GraphPad Prism 9.3 software (Graph-Pad, San Diego, CA, USA).

Another test deals with T2, recombinant human MAO-B (Homo sapiens, UniProt P27338).
T2 construct: purchased Sigma-Aldrich M7441-1VL
T2 sequence (P27338 1-520): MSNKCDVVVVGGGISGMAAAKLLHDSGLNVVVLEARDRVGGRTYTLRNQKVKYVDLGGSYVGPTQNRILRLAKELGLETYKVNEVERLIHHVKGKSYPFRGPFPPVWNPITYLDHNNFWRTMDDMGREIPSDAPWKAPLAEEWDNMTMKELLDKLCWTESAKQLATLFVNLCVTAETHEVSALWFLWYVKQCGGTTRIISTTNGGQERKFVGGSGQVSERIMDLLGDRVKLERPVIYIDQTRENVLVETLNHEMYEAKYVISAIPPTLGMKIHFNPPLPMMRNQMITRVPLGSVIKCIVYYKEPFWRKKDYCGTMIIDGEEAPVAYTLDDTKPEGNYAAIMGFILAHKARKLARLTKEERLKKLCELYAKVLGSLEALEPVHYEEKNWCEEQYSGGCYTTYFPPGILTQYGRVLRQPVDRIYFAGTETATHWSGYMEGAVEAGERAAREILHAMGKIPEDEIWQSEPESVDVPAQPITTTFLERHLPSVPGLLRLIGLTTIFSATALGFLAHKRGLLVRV
The test can be described thus: MAO-Glo assay, MAO-B. The note with it: read-out: % Inhibition at 20 μM ± SD, MAO-B. The protocol:
To determine selectivity, the compounds were tested for activity against the related FAD-dependent amine oxidase enzymes LSD1, MAO-A, and MAO-B. LSD1 activity was assessed using a commercially available assay kit (#700120, Cayman Chemical, Ann Arbor, MI, USA), in which the enzyme activity was determined by the horseradish peroxidase-catalyzed oxidation of 10-acetyl-3,7-dihydroxyphenoxazine to the highly fluorescent resorufin in response to H2O2 production. Monoamine oxidase activity was determined using recombinant human MAO-A and MAO-B (M7316-1VL & M7441-1VL, Sigma-Aldrich, St. Louis, MO, USA) and a commercially available assay kit (#V1401, MAO-Glo, Promega, Madison, WI, USA), which utilizes the MAO-catalyzed oxidation of a luciferin derivative coupled with esterase activity to produce luminescence. Fluorescent and luminescent readout was obtained using a SpectraMax M5 plate reader (Molecular Devices) equipped with SOFTmax PRO 7.0.3 software. […] Values were reported as mean % inhibition ± SD of triplicate assay wells normalized to background activity and compared to the vehicle control.

In another test the target is T3, LSD1 (Homo sapiens, UniProt O60341).
T3 construct: purchased Cayman Chemical #700120
The test can be described thus: LSD1 selectivity assay (Cayman kit, resorufin fluorescence). The settings on record: read-out: % Inhibition at 20 μM ± SD, LSD1.

Each structure is given as a SMILES string.

T1 sequence (Q9NWM0 whole entry): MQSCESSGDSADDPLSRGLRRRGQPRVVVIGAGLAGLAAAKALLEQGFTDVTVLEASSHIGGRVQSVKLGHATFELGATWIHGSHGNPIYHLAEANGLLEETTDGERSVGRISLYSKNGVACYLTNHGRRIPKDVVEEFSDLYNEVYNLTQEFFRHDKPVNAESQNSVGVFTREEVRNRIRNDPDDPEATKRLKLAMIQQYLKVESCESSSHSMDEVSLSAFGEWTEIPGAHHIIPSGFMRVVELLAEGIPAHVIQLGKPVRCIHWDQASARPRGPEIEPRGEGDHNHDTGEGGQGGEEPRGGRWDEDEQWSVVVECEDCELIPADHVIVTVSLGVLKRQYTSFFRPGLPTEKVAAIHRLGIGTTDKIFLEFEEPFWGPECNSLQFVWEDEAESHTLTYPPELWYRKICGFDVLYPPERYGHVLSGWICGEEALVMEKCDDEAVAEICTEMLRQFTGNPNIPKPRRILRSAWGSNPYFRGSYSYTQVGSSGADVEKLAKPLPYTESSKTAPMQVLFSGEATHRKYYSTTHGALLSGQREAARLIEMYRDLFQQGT

As a reminder, the inhibition is the relative decrease from the control value, in per cent. Broadly, the IC50 is the midpoint of a concentration-inhibition curve. A low value points to greater potency. For orientation: Ki means the equilibrium dissociation constant of an inhibitor or competing ligand from its target. A higher Ki goes with lower affinity. Consider `Cc1cc([C@H](O)CNCCCNC(=N)N)cc(C)c1O` [Compound 6], for which the inhibition at 20 µM at SMOX [1] (20 µM compound, no pre-incubation, triplicate, read-out: % Inhibition at 20 μM ± SD, SMOX) was 99.7 ± 0.1%; at recombinant human MAO-B, -13.7 ± 3.8%; on LSD1, -24.2 ± 4.5%. The molecule further showed an IC50 against SMOX [1] (AUC over 60 s, pH 8) of 0.54 µM. The Mechanism of inhibition result on SMOX [2] (Lineweaver–Burk analysis) is given as “competitive”. This molecule had a Ki on SMOX [2] (global fit for competitive inhibition, inhibitor 0, 0.1, 1 µM) of 1.6 µM.
